Test results: patent publication US20260347347A1, “2-AZA-AND 2-OXABICYCLO[2.1.1]HEXANE DERIVATIVES AS FACTOR XIIA ENZYME INHIBITORS” (KALVISTA PHARMACEUTICALS LIMITED, priority 2022, published 2026)
Like-named read-outs stand apart in the source and are kept apart here.

Key:
[1] = target: T1, human PKal (Homo sapiens, UniProt P03952); assay: Determination of related protease inhibition: plasma kallikrein; format: biochemical
T1 construct: FXIIa converts plasma prekallikrein (PK) to plasma kallikrein (PKa)
Procedure: (§1) In vitro inhibition of related proteases was determined using an IC50 assay based on standard literature methods (see e.g. Shori et al., Biochem. Pharmacol., 1992,43, 1209; Bouckaert et al., European Journal of Medicinal Chemistry 110 (2016) 181). Human serine protease enzyme Plasma Kallikrein, KLK1, FXa, Plasmin, Thrombin and Trypsin were assayed for enzymatic activity using an appropriate fluorogenic substrate at Km concentration, FXIa at fixed substrate concentration of 100 μM and various concentrations of the test compound. Protease activity was measured by monitoring the accumulation of liberated fluorescence from the substrate over 5 min at 25 °C. The linear rate of fluorescence increase per minute was expressed as percentage (%) activity. IC50 values were calculated as the concentration of inhibitor giving 50% inhibition of the uninhibited enzyme activity (100%).

[2] = target: T2, Human Factor XIIa (Homo sapiens, UniProt P00748); assay: Determination of FXIIa inhibition (in vitro IC50 assay, fluorogenic substrate H-DPro-Phe-Arg-AFC); format: biochemical
T2 construct: purchased Enzyme Research Laboratories
T2 sequence (P00748 373-615 limits assumed): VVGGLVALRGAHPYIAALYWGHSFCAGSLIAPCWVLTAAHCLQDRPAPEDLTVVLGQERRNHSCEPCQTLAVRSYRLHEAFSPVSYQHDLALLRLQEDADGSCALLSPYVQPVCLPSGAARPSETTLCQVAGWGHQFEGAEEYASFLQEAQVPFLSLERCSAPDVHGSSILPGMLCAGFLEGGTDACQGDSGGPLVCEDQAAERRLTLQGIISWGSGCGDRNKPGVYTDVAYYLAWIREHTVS
T2 sequence (P00748 20-372 partner limits assumed): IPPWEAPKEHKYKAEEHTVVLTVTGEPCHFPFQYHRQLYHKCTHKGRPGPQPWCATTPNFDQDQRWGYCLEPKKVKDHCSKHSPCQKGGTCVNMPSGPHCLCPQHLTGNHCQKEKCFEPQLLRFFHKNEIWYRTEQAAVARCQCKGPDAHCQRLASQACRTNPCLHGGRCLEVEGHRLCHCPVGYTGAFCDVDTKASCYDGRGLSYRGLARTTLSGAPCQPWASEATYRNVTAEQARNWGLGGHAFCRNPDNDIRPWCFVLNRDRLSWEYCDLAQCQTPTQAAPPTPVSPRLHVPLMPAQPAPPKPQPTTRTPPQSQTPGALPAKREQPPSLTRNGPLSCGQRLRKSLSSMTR
Outline: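 Human FXIIa incubated at 25 °C with compound and H-DPro-Phe-Arg-AFC at its Km concentration. Linear fluorescence increase monitored over 5 min, expressed as % of uninhibited activity; IC50 is concentration giving 50% inhibition.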

[3] = target: human FXa (Homo sapiens, UniProt P00742); assay: Determination of related protease inhibition: FXa; format: biochemical
Procedure: as §1

[4] = target: human plasmin (Homo sapiens, UniProt P00747); assay: Determination of related protease inhibition: plasmin; format: biochemical
Procedure: as §1

[5] = target: human thrombin (Homo sapiens, UniProt P00734); assay: Determination of related protease inhibition: thrombin; format: biochemical
Procedure: as §1

[6] = target: human KLK1 (Homo sapiens, UniProt P06870); assay: Determination of related protease inhibition: KLK1; format: biochemical
Procedure: as §1

[7] = tested on: human trypsin; assay: Determination of related protease inhibition: trypsin; format: biochemical; conditions: fluorogenic substrate at Km concentration, 25 °C
Procedure: as §1

[8] = target: human FXIa (Homo sapiens, UniProt P03951); assay: Determination of related protease inhibition: FXIa; format: biochemical
Procedure: as §1

[9] = tested on: patients with type I/II hereditary angioedema (HAE); conditions: phase 3, monthly prophylactic subcutaneous treatment; cited from earlier work
[10] = fluorogenic substrate at Km concentration, 25 °C, read-out: IC50 (human PKal)
[11] = human Factor XIIa, fluorogenic substrate H-DPro-Phe-Arg-AFC at Km concentration, 5 min, 25 °C, class symbols, read-out: Human FXIIa IC50
[12] = fluorogenic substrate at Km concentration, 25 °C, read-out: IC50 (human FXa)
[13] = fluorogenic substrate at Km concentration, 25 °C, read-out: IC50 (human plasmin)
[14] = fluorogenic substrate at Km concentration, 25 °C, read-out: IC50 (human thrombin)
[15] = fluorogenic substrate at Km concentration, 25 °C, read-out: IC50 (human KLK1)

Sequence of human plasmin (P00747 581-810 limits assumed): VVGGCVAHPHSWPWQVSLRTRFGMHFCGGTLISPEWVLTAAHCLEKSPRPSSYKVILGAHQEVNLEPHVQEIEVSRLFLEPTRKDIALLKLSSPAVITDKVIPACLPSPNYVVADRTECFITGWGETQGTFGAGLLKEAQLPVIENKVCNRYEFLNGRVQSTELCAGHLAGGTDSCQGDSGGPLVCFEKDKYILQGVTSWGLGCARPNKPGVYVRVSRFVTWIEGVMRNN
Sequence of human plasmin (P00747 97-580 partner limits assumed): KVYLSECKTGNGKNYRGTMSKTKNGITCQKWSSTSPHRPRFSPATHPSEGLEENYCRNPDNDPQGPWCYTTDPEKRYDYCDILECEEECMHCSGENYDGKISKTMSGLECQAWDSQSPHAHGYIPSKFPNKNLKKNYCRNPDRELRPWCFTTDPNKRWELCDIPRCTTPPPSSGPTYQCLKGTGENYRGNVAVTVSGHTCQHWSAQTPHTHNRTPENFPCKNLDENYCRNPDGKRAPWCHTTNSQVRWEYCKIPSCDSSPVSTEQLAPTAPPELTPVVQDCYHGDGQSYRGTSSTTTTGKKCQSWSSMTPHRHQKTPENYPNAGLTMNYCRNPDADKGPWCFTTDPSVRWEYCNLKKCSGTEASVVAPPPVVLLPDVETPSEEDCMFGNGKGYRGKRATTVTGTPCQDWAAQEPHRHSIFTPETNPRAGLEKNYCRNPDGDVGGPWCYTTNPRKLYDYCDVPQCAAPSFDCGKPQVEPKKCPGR
T1 sequence (P03952 391-638 limits assumed): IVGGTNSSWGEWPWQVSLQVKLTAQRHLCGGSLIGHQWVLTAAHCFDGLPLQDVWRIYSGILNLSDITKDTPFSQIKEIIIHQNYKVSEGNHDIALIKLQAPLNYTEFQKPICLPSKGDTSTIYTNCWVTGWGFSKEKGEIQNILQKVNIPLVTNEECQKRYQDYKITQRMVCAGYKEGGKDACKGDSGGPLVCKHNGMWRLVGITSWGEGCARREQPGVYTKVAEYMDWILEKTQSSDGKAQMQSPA
T1 sequence (P03952 20-390 partner limits assumed): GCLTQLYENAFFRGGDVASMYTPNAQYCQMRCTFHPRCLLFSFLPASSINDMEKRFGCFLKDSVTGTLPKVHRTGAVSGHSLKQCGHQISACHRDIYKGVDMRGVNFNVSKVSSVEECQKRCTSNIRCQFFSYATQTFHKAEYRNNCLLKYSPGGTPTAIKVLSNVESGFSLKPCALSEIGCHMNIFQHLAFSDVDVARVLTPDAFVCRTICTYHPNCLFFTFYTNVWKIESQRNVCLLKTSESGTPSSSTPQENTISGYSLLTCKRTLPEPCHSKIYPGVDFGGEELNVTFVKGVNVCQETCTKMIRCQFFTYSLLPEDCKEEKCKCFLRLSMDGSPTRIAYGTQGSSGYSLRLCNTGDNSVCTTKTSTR
Sequence of human KLK1 (P06870 25-262): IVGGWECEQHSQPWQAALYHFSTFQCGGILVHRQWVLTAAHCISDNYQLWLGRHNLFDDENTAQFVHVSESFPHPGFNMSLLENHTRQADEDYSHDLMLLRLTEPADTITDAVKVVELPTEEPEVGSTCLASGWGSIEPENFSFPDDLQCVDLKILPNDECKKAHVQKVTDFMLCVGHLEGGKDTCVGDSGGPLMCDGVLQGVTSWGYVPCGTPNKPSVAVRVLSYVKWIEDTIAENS
Sequence of human FXa (P00742 235-488 limits assumed): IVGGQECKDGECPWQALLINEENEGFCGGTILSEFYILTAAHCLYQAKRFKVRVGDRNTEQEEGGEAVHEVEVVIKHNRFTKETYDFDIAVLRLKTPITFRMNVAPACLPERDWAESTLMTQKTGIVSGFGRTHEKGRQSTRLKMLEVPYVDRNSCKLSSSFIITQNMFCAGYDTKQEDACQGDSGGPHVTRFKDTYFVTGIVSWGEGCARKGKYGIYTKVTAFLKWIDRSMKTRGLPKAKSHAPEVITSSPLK
Sequence of human FXa (P00742 41-179 partner limits assumed): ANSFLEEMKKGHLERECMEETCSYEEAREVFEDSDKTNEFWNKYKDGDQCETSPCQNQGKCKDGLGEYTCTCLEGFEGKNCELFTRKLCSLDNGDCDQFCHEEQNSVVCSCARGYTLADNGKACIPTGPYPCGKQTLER
Sequence of human FXIa (P03951 388-625 limits assumed): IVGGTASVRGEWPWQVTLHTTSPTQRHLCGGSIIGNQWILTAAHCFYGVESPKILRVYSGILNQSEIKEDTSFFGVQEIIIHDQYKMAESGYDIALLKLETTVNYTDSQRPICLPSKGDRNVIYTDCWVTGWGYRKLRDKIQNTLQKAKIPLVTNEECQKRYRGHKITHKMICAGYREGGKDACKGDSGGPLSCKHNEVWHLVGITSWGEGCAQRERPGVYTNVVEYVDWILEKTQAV
Sequence of human FXIa (P03951 19-387 partner limits assumed): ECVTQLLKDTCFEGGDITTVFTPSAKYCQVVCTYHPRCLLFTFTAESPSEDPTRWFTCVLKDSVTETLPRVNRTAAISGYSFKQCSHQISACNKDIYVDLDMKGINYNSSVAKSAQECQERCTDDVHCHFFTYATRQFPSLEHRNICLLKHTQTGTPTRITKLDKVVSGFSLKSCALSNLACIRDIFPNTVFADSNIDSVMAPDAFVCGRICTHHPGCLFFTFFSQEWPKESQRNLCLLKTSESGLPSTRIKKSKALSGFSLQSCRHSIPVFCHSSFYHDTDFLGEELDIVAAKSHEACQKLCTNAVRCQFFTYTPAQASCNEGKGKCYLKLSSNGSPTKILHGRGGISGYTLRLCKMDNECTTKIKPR

Q: For `Cn1ccc(OCC23CN(C(=O)CC4CCCCC4)C(CNc4cccc5c(N)nccc45)(C2)C3)cc1=O` [Example 5, 4-((1-(((1-aminoisoquinolin-5-yl)amino)methyl)-2-(2-cyclohexylacetyl)-2-azabicyclo[2.1.1]hexan-4-yl)methoxy)-1-methylpyridin-2(1H)-one], which IC50 [1, 10] is on record?
A: > 40000 nM

Q: And the IC50 [2, 11]?
A: 10 to 100 nM

Q: What about the IC50 [3, 12] of the same molecule?
A: 10000 to 40000 nM

Q: And the IC50 [4, 13]?
A: 3000 to 10000 nM

Q: And the IC50 [5, 14]?
A: 10000 to 40000 nM

Q: What about the IC50 [6, 15] of the same molecule?
A: 1000 to 3000 nM

Q: And the IC50 [7]?
A: 10000 to 40000 nM

Q: For `Cc1cc(OCC23CN(C(=O)C4CC5(CCOCC5)C4)C(CNc4cccc5c(N)nccc45)(C2)C3)cc(=O)n1C` [Example 20, 4-((1-(((1-aminoisoquinolin-5-yl)amino)methyl)-2-(7-oxaspiro[3.5]nonane-2-carbonyl)-2-azabicyclo[2.1.1]hexan-4-yl)methoxy)-1,6-dimethylpyridin-2(1H)-one], which IC50 [1, 10] is on record?
A: > 40000 nM

Q: What about the IC50 [2, 11] of the same molecule?
A: 10 to 100 nM

Q: And the IC50 [3, 12]?
A: 10000 to 40000 nM

Q: And the IC50 [4, 13]?
A: 10000 to 40000 nM

Q: And the IC50 [5, 14]?
A: > 40000 nM

Q: And the IC50 ([8]; fixed substrate concentration of 100 μM, 25 °C, read-out: IC50 (human FXla))?
A: 10000 to 40000 nM

Q: What about the IC50 [6, 15] of the same molecule?
A: 10000 to 40000 nM

Q: With `Cn1ccc(OCC23CN(C(=O)NC4(c5ccccc5)CC4)C(CNc4cccc5c(N)nccc45)(C2)C3)cc1=O` [Example 30, 1-(((1-Aminoisoquinolin-5-yl)amino)methyl)-4-(((1-methyl-2-oxo-1,2-dihydropyridin-4-yl)oxy)methyl)-N-(1-phenylcyclopropyl)-2-azabicyclo[2.1.1]hexane-2-carboxamide] as the molecule, how does the IC50 [1] read?
A: 10000 to 40000 nM

Q: And the IC50 [2]?
A: 1 to 10 nM

Q: What about the IC50 [3] of the same molecule?
A: 10000 to 40000 nM

Q: And the IC50 [4]?
A: 10000 to 40000 nM

Q: And the IC50 [5]?
A: > 40000 nM

Q: What about the IC50 [8] of the same molecule?
A: 3000 to 10000 nM

Q: And the IC50 [6]?
A: 1000 to 3000 nM

Q: For `Cc1cc(OCC23CN(C(=O)N4CCCC5(C4)CC5(F)F)C(CNc4cccc5c(N)nccc45)(C2)C3)cc(=O)n1C` (stereo not drawn) [Example 87, 4-((1-(((1-aminoisoquinolin-5-yl)amino)methyl)-2-(1,1-difluoro-5-azaspiro[2.5]octane-5-carbonyl)-2-azabicyclo[2.1.1]hexan-4-yl)methoxy)-1,6-dimethylpyridin-2(1H)-one], which IC50 [2, 11] is on record?
A: 10 to 100 nM

Q: With `Cn1ccc(OCC23CN(C(=O)N[C@@H](c4ccccc4)C(F)(F)F)C(CNc4cccc5c(N)nccc45)(C2)C3)cc1=O` [Example 88, (S)-1-(((1-aminoisoquinolin-5-yl)amino)methyl)-4-(((1-methyl-2-oxo-1,2-dihydropyridin-4-yl)oxy)methyl)-N-(2,2,2-trifluoro-1-phenylethyl)-2-azabicyclo [2.1.1]hexane-2-carboxamide] as the molecule, how does the IC50 [2, 11] read?
A: 10 to 100 nM

Q: For `Cc1cc(OCC23CN(C(=O)N4CCC5(C4)CC5(F)F)C(CNc4cccc5c(N)nccc45)(C2)C3)cc(=O)n1C` (stereo not drawn) [Example 89, 4-((1-(((1-aminoisoquinolin-5-yl)amino)methyl)-2-(1,1-difluoro-5-azaspiro[2.4]heptane-5-carbonyl)-2-azabicyclo[2.1.1]hexan-4-yl)methoxy)-1,6-dimethylpyridin-2(1H)-one], which IC50 [2, 11] is on record?
A: 10 to 100 nM

Q: With `Cc1cc(OCC23CN(C(=O)N(C)C4COc5ccccc54)C(CNc4cccc5c(N)nccc45)(C2)C3)cc(=O)n1C` (stereo not drawn) [Example 90, 1-(((1-Aminoisoquinolin-5-yl)amino)methyl)-N-(2,3-dihydrobenzofuran-3-yl)-4-(((1,6-dimethyl-2-oxo-1,2-dihydropyridin-4-yl)oxy)methyl)-N-methyl-2-azabicyclo[2.1.1]hexane-2-carboxamide] as the molecule, how does the IC50 [2, 11] read?
A: 1 to 10 nM

Q: For `Cn1ccc(OCC23CN(C(=S)Nc4ccccc4)C(CNc4cccc5c(N)nccc45)(C2)C3)cc1=O` [Example 91, 1-(((1-Aminoisoquinolin-5-yl)amino)methyl)-4-(((1-methyl-2-oxo-1,2-dihydropyridin-4-yl)oxy)methyl)-N-phenyl-2-azabicyclo[2.1.1]hexane-2-carbothioamide], which IC50 [2, 11] is on record?
A: 10 to 100 nM

Q: With `Cc1cc(OCC23CN(C(=O)Nc4ccc5c(c4)OC(F)(F)O5)C(CNc4cccc5c(N)nccc45)(C2)C3)cc(=O)n1C` [Example 92, 1-(((1-aminoisoquinolin-5-yl)amino)methyl)-N-(2,2-difluorobenzo[d][1,3]dioxol-5-yl)-4-(((1,6-dimethyl-2-oxo-1,2-dihydropyridin-4-yl)oxy)methyl)-2-azabicyclo[2.1.1]hexane-2-carboxamide] as the molecule, how does the IC50 [2, 11] read?
A: 10 to 100 nM

Q: For `Cn1ccc(OCC23CN(c4ncc(C5CC5)cn4)C(CNc4cccc5c(N)nccc45)(C2)C3)cc1=O` [Example 93, 4-((1-(((1-aminoisoquinolin-5-yl)amino)methyl)-2-(5-cyclopropylpyrimidin-2-yl)-2-azabicyclo[2.1.1]hexan-4-yl)methoxy)-1-methylpyridin-2(1H)-one], which IC50 [2, 11] is on record?
A: 10 to 100 nM

Q: Which IC50 [2, 11] does the source give for `Cc1cc(OCC23CN(c4ccc(C5CC5)nc4)C(CNc4cccc5c(N)nccc45)(C2)C3)cc(=O)n1C` [Example 94, 4-((1-(((1-aminoisoquinolin-5-yl)amino)methyl)-2-(6-cyclopropylpyridin-3-yl)-2-azabicyclo[2.1.1]hexan-4-yl)methoxy)-1,6-dimethylpyridin-2(1H)-one] here?
A: 10 to 100 nM

Q: For `Cc1cc(OCC23CN(c4ccc(C5CC5)nn4)C(CNc4cccc5c(N)nccc45)(C2)C3)cc(=O)n1C` [Example 95, 4-((1-(((1-Aminoisoquinolin-5-yl)amino)methyl)-2-(6-cyclopropylpyridazin-3-yl)-2-azabicyclo[2.1.1]hexan-4-yl)methoxy)-1,6-dimethylpyridin-2(1H)-one], which IC50 [2, 11] is on record?
A: 10 to 100 nM

Q: Which IC50 [2, 11] does the source give for `Cc1cc(OCC23CN(C4=NCCO4)C(CNc4cccc5c(N)nccc45)(C2)C3)cc(=O)n1C` [Example 97, 4-((1-(((1-Aminoisoquinolin-5-yl)amino)methyl)-2-(4,5-dihydrooxazol-2-yl)-2-azabicyclo[2.1.1]hexan-4-yl)methoxy)-1,6-dimethylpyridin-2(1H)-one] here?
A: 10 to 100 nM

Q: For `Cn1ccc(OCC23CC(CNc4cccc5c(N)nccc45)(CN2C(=O)CCC2CCCCC2)C3)cc1=O` [Example 102, 4-((4-(((1-Aminoisoquinolin-5-yl)amino)methyl)-2-(3-cyclohexylpropanoyl)-2-azabicyclo[2.1.1]hexan-1-yl)methoxy)-1-methylpyridin-2(1H)-one], which IC50 [2, 11] is on record?
A: 100 to 300 nM

Q: Which IC50 [2, 11] does the source give for `Cn1ccc(OCC23CC(CNc4cccc5c(N)nccc45)(CN2C(=O)CC2CCCCC2)C3)cc1=O` [Example 103, 4-((4-(((1-aminoisoquinolin-5-yl)amino)methyl)-2-(2-cyclohexylacetyl)-2-azabicyclo[2.1.1]hexan-1-yl)methoxy)-1-methylpyridin-2(1H)-one] here?
A: 300 to 1000 nM

Q: With `Cc1cc(OCC23CN(C(=O)Nc4ccc5c(c4)CCCO5)C(CN(C)c4cccc5c(N)nccc45)(C2)C3)cc(=O)n1C` [Example 104, 1-(((1-aminoisoquinolin-5-yl)(methyl)amino)methyl)-N-(chroman-6-yl)-4-(((1,6-dimethyl-2-oxo-1,2-dihydropyridin-4-yl)oxy)methyl)-2-azabicyclo[2.1.1]hexane-2-carboxamide] as the molecule, how does the IC50 [2, 11] read?
A: 10 to 100 nM

Q: With `Cc1cc(OCC23CN(c4nnc(C5CC5)o4)C(CNc4cccc5c(N)nccc45)(C2)C3)cc(=O)n1C` [Example 105, 4-((1-(((1-aminoisoquinolin-5-yl)amino)methyl)-2-(5-cyclopropyl-1,3,4-oxadiazol-2-yl)-2-azabicyclo[2.1.1]hexan-4-yl)methoxy)-1,6-dimethylpyridin-2(1H)-one] as the molecule, how does the IC50 [2, 11] read?
A: 1 to 10 nM

Q: For “Garadacimab: Garadacimab (CSL-312), a monoclonal antibody inhibitory against FXIIa”, which “attacks in patients with type I/II hereditary angioedema” value [9] is on record?
A: reduce attacks
